Data from publication PMC8800111 (The Journal of Biological Chemistry, 2021).

Tests used:
Assay type in all cases: cell-based
[1] = molecular target: proteins of U3A human fibrosarcoma cells (4462 proteins detected) (Homo sapiens, UniProt Q9H8H0); conditions: protein NOL11; soluble abundance after heat, U3A cells
[2] = molecular target: proteins of U3A human fibrosarcoma cells (4462 proteins detected) (Homo sapiens, UniProt Q15041); conditions: protein ARL6IP1; U3A cells
[3] = molecular target: proteins of U3A human fibrosarcoma cells (4462 proteins detected) (Homo sapiens, UniProt O00487); conditions: protein PSMD14; U3A cells
[4] = molecular target: proteins of U3A human fibrosarcoma cells (4462 proteins detected) (Homo sapiens, UniProt Q9HCN4); conditions: protein GPN1; soluble abundance after heat, U3A cells
[5] = molecular target: proteins of U3A human fibrosarcoma cells (4462 proteins detected) (Homo sapiens, UniProt Q13162); conditions: protein PRDX4; U3A cells
[6] = molecular target: proteins of U3A human fibrosarcoma cells (4462 proteins detected) (Homo sapiens, UniProt O14646); conditions: protein CHD1, U3A cells
[7] = molecular target: proteins of U3A human fibrosarcoma cells (4462 proteins detected) (Homo sapiens, UniProt Q8NCA5); conditions: protein FAM98A; U3A cells
[8] = molecular target: proteins of U3A human fibrosarcoma cells (4462 proteins detected) (Homo sapiens, UniProt Q9H3N1); conditions: protein TMX1; U3A cells
[9] = molecular target: proteins of U3A human fibrosarcoma cells (4462 proteins detected) (Homo sapiens, UniProt Q9Y5J1); conditions: protein UTP18; U3A cells
[10] = molecular target: proteins of U3A human fibrosarcoma cells (4462 proteins detected) (Homo sapiens, UniProt Q8WW12); conditions: protein PCNP, U3A cells
[11] = molecular target: proteins of U3A human fibrosarcoma cells (4462 proteins detected) (Homo sapiens, UniProt P36542); conditions: protein ATP5C1; U3A cells
[12] = molecular target: proteins of U3A human fibrosarcoma cells (4462 proteins detected) (Homo sapiens, UniProt Q9Y2Q3); conditions: protein GSTK1; U3A cells
[13] = molecular target: proteins of U3A human fibrosarcoma cells (4462 proteins detected) (Homo sapiens, UniProt Q15366); conditions: protein PCBP2; U3A cells
[14] = molecular target: proteins of U3A human fibrosarcoma cells (4462 proteins detected) (Homo sapiens, UniProt P50995); conditions: protein ANXA11; U3A cells
[15] = molecular target: proteins of U3A human fibrosarcoma cells (4462 proteins detected) (Homo sapiens, UniProt Q9H6E4); conditions: protein CCDC134; U3A, 10 μM, 2 h
[16] = molecular target: proteins of U3A human fibrosarcoma cells (4462 proteins detected) (Homo sapiens, UniProt Q16626); conditions: protein MEA1, U3A cells
[17] = molecular target: proteins of U3A human fibrosarcoma cells (4462 proteins detected) (Homo sapiens, UniProt Q8TBF4); conditions: protein ZCRB1; soluble abundance after heat, U3A cells
[18] = molecular target: proteins of U3A human fibrosarcoma cells (4462 proteins detected) (Homo sapiens, UniProt Q9P2E9); conditions: protein RRBP1; soluble abundance after heat, U3A cells
[19] = molecular target: proteins of U3A human fibrosarcoma cells (4462 proteins detected) (Homo sapiens, UniProt Q9BX40); conditions: protein LSM14B; U3A, 10 μM, 2 h
[20] = molecular target: proteins of U3A human fibrosarcoma cells (4462 proteins detected) (Homo sapiens, UniProt Q15365); conditions: protein PCBP1; U3A cells
[21] = molecular target: proteins of U3A human fibrosarcoma cells (4462 proteins detected) (Homo sapiens, UniProt O00422); conditions: protein SAP18; soluble abundance after heat, U3A cells
[22] = molecular target: proteins of U3A human fibrosarcoma cells (4462 proteins detected) (Homo sapiens, UniProt Q01826); conditions: protein SATB1; U3A cells
[23] = molecular target: proteins of U3A human fibrosarcoma cells (4462 proteins detected) (Homo sapiens, UniProt Q12979); conditions: protein ABR; U3A cells
[24] = molecular target: proteins of U3A human fibrosarcoma cells (4462 proteins detected) (Homo sapiens, UniProt P02786); conditions: protein TFRC; U3A cells
[25] = molecular target: proteins of U3A human fibrosarcoma cells (4462 proteins detected) (Homo sapiens, UniProt Q9Y2K3); conditions: protein MYH15; U3A cells
[26] = molecular target: proteins of U3A human fibrosarcoma cells (4462 proteins detected) (Homo sapiens, UniProt Q9UIS9); conditions: protein MBD1; U3A cells
[27] = molecular target: proteins of U3A human fibrosarcoma cells (4462 proteins detected) (Homo sapiens, UniProt O43427); conditions: protein FIBP; soluble abundance after heat, U3A cells
[28] = molecular target: proteins of U3A human fibrosarcoma cells (4462 proteins detected) (Homo sapiens, UniProt P36776); conditions: protein LONP1; U3A cells
[29] = molecular target: proteins of U3A human fibrosarcoma cells (4462 proteins detected) (Homo sapiens, UniProt Q9UEY8); conditions: protein ADD3; U3A cells
[30] = molecular target: proteins of U3A human fibrosarcoma cells (4462 proteins detected) (Homo sapiens, UniProt P57772); conditions: protein EEFSEC, U3A cells
Chain of proteins of U3A human fibrosarcoma cells (4462 proteins detected) (Homo sapiens, UniProt P57772) (P57772 whole entry): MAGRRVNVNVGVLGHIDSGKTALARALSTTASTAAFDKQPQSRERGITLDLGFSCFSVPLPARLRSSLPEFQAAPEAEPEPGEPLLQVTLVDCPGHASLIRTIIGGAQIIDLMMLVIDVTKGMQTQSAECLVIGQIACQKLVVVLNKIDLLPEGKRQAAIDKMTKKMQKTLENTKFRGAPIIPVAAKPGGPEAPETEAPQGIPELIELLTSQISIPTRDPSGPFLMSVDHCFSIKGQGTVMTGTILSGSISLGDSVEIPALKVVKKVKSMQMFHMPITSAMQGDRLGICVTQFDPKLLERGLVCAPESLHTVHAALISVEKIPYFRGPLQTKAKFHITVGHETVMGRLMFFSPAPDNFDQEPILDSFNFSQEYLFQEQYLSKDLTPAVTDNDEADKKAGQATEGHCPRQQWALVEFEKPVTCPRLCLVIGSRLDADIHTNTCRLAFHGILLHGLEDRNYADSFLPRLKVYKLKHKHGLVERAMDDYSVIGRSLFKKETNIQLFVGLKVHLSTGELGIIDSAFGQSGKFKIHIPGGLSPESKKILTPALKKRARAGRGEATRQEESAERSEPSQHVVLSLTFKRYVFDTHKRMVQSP

Chain of proteins of U3A human fibrosarcoma cells (4462 proteins detected) (Homo sapiens, UniProt P50995) (P50995 whole entry): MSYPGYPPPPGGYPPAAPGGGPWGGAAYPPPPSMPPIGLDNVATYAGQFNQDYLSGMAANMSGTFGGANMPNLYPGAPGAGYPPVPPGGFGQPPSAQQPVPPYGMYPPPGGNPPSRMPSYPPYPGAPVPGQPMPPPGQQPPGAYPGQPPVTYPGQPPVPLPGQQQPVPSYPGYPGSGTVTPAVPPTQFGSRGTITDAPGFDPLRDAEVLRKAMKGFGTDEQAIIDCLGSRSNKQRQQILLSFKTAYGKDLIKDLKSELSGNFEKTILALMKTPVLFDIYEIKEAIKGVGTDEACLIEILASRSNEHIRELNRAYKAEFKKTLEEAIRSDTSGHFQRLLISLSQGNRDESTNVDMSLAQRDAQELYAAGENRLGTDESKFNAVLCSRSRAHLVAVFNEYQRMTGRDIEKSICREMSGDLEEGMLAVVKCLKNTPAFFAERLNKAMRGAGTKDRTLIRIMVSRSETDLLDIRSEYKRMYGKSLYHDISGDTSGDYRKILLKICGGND
Chain of proteins of U3A human fibrosarcoma cells (4462 proteins detected) (Homo sapiens, UniProt Q9P2E9) (Q9P2E9 whole entry): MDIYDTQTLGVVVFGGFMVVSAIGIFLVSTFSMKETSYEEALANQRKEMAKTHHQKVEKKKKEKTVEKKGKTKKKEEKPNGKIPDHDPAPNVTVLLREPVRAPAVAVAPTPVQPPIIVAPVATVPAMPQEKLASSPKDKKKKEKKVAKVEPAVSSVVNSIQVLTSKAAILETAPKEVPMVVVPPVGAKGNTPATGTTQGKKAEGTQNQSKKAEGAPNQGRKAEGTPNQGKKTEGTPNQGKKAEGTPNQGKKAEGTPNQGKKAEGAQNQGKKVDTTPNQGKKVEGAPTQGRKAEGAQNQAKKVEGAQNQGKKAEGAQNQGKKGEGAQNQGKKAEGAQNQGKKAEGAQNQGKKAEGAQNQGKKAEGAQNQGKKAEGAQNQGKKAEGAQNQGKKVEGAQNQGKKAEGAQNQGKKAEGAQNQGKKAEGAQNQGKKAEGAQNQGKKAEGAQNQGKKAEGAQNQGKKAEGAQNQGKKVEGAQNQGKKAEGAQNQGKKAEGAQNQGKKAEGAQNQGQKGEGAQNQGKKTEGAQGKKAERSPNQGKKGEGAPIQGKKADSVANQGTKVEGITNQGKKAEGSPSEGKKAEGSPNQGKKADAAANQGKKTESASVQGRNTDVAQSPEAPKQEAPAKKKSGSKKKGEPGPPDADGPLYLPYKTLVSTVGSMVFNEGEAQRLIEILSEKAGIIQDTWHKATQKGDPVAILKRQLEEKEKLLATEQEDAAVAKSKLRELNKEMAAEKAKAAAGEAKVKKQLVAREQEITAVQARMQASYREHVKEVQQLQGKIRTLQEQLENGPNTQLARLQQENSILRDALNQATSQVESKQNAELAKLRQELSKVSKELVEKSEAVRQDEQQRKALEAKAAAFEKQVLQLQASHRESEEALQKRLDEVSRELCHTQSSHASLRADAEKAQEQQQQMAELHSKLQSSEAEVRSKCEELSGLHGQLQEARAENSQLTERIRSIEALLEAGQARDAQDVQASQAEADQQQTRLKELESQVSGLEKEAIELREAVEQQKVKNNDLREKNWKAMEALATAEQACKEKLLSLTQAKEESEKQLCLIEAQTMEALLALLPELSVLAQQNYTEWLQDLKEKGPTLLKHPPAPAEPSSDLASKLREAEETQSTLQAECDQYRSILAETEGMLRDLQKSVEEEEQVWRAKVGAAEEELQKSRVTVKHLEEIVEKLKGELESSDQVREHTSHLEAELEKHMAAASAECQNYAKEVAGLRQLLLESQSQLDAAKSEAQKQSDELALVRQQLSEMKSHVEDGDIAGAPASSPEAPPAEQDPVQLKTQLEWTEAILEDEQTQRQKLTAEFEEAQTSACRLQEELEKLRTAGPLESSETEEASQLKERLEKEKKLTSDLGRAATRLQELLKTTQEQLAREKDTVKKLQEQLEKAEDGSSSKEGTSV
Chain of proteins of U3A human fibrosarcoma cells (4462 proteins detected) (Homo sapiens, UniProt Q15365) (Q15365 whole entry): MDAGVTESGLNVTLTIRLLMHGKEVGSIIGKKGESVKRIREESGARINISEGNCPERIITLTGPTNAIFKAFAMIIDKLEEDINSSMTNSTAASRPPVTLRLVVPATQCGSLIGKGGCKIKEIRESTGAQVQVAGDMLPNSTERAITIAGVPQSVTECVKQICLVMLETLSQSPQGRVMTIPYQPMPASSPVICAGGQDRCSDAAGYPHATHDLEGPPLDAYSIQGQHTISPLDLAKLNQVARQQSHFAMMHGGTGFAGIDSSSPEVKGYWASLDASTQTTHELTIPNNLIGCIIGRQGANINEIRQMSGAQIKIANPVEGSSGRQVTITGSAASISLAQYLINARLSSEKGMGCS
Chain of proteins of U3A human fibrosarcoma cells (4462 proteins detected) (Homo sapiens, UniProt O14646) (O14646 whole entry): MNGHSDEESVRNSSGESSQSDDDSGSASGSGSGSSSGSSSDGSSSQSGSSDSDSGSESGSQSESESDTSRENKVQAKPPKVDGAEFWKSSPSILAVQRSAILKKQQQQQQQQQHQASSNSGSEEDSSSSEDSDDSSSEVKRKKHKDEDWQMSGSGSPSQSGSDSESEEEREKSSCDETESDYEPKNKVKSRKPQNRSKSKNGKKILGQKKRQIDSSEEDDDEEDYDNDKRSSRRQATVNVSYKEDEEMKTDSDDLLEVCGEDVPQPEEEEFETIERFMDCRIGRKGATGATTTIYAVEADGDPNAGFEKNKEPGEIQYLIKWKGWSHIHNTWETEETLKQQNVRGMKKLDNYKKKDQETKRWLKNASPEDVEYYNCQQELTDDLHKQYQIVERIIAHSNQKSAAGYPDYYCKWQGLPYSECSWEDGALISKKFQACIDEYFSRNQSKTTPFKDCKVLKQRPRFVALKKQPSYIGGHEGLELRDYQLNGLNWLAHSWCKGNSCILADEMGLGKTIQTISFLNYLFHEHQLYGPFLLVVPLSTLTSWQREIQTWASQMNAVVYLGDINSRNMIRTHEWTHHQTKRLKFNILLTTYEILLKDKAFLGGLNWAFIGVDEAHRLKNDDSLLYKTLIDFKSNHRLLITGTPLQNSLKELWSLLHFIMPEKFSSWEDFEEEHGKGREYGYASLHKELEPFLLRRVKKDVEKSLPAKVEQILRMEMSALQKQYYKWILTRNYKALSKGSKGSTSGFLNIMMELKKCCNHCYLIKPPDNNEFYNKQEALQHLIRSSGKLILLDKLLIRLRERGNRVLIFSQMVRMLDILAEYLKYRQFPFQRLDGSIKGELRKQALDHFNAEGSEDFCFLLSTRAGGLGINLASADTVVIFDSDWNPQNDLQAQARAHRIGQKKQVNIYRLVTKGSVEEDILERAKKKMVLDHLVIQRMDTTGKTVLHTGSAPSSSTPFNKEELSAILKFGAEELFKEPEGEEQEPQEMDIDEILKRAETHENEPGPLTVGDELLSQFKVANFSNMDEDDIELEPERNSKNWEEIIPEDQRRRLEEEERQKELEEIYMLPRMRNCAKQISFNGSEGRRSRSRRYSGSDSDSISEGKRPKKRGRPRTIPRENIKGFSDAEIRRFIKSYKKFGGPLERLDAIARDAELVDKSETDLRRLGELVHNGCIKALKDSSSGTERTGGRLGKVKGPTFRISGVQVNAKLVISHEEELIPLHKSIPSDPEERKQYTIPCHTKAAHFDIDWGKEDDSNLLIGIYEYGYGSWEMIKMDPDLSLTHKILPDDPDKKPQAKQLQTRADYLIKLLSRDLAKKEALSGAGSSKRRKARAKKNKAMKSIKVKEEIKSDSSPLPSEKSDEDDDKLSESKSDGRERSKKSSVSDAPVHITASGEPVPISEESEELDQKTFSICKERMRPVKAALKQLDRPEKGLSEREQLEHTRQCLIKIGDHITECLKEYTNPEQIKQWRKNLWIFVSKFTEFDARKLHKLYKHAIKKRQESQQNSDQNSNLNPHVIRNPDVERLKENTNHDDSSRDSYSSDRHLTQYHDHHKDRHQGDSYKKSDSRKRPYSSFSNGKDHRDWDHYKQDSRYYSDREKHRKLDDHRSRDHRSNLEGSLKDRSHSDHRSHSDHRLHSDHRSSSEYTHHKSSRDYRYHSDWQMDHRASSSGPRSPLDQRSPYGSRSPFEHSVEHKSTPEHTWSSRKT
Chain of proteins of U3A human fibrosarcoma cells (4462 proteins detected) (Homo sapiens, UniProt Q8NCA5) (Q8NCA5 whole entry): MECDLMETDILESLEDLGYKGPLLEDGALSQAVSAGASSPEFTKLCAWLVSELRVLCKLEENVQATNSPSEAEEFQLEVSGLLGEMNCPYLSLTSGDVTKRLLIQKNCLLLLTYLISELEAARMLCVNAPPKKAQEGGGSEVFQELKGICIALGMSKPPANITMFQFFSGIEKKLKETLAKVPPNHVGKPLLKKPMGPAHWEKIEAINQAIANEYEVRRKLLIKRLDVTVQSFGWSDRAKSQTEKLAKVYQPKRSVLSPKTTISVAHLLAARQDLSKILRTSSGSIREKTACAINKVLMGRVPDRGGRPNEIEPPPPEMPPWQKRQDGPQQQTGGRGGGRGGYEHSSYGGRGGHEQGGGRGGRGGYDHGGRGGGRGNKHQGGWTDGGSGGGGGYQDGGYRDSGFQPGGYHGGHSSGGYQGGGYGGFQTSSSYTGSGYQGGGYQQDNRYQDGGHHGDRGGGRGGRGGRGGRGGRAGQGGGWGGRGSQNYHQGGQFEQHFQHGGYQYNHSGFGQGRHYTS

SMILES: CCc1nc(N)nc(N)c1-c1ccc(Cl)cc1 [pyrimethamine]
- Log2 (PYR/DMSO) [1]: 0.14
- Log2 (PYR/DMSO) [2]: 0.17
- Log2 (PYR/DMSO) [3]: 0.17
- Log2 (PYR/DMSO) [4]: 0.15
- Log2 (PYR/DMSO) [5]: 0.16
- Log2 (PYR/DMSO) [6]: -0.04
- Log2 (PYR/DMSO) [7]: 0.24
- Log2 (PYR/DMSO) [8]: 0.20
- Log2 (PYR/DMSO) [9]: 0.21
- Log2 (PYR/DMSO) [10]: -0.04
- Log2 (PYR/DMSO) [11]: 0.21
- Log2 (PYR/DMSO) [12]: 0.18
- Log2 (PYR/DMSO) [13]: 0.18
- Log2 (PYR/DMSO) [14]: 0.19
- Log2 (PYR/DMSO), CCDC134 [15]: 0.23
- Log2 (PYR/DMSO) [16]: -0.04
- Log2 (PYR/DMSO) [17]: 0.14
- Log2 (PYR/DMSO) [18]: 0.15
- Log2 (PYR/DMSO), LSM14B [19]: -0.17
- Log2 (PYR/DMSO) [20]: 0.18
- Log2 (PYR/DMSO) [21]: 0.14
- Log2 (PYR/DMSO) [22]: 0.21
- Log2 (PYR/DMSO) [23]: 0.18
- Log2 (PYR/DMSO) [24]: 0.16
- Log2 (PYR/DMSO) [25]: 0.17
- Log2 (PYR/DMSO) [26]: 0.19
- Log2 (PYR/DMSO) [27]: 0.14
- Log2 (PYR/DMSO) [28]: 0.22
- Log2 (PYR/DMSO) [29]: 0.16
- Log2 (PYR/DMSO) [30]: -0.04
